Measurements as given in patent US20150056702A1, “METHOD AND KIT FOR CULTURING STEM CELLS” (China Medical University, priority 2013, published 2015).

Tested on: ES cells
Assay: DNA microarray analysis of ES cells
Assay type: cell-based, mouse
Conditions: for Amino acid metabolism: % of genes regulated / Amino acid metabolism: D, number of down-regulated genes / Amino acid metabolism: I, number of up-regulated genes / Amino acid metabolism: No. (regulated genes/genes of function) / Apoptosis: % of genes regulated / Apoptosis: D, number of down-regulated genes / Apoptosis: I, number of up-regulated genes / Apoptosis: No. (regulated genes/genes of function) / Calcium signaling pathway: % of genes regulated / Calcium signaling pathway: D, number of down-regulated genes / Calcium signaling pathway: I, number of up-regulated genes / Calcium signaling pathway: No. (regulated genes/genes of pathway) / Cell adhesion molecules: % of genes regulated / Cell adhesion molecules: D, number of down-regulated genes / Cell adhesion molecules: I, number of up-regulated genes / Cell adhesion molecules: No. (regulated genes/genes of function) / Cell communication: % of genes regulated / Cell communication: D, number of down-regulated genes / Cell communication: I, number of up-regulated genes / Cell communication: No. (regulated genes/genes of function) / Cell cycle: % of genes regulated / Cell cycle: D, number of down-regulated genes / Cell cycle: I, number of up-regulated genes / Cell cycle: No. (regulated genes/genes of function) / ECM-receptor interaction: % of genes regulated / ECM-receptor interaction: D, number of down-regulated genes / ECM-receptor interaction: I, number of up-regulated genes / ECM-receptor interaction: No. (regulated genes/genes of pathway) / Insulin signaling pathway: % of genes regulated / Insulin signaling pathway: D, number of down-regulated genes / Insulin signaling pathway: I, number of up-regulated genes / Insulin signaling pathway: No. (regulated genes/genes of pathway) / JAK-STAT signaling pathway: % of genes regulated / JAK-STAT signaling pathway: D, number of down-regulated genes / JAK-STAT signaling pathway: I, number of up-regulated genes / JAK-STAT signaling pathway: No. (regulated genes/genes of pathway) / Lipid metabolism: % of genes regulated / Lipid metabolism: D, number of down-regulated genes / Lipid metabolism: I, number of up-regulated genes / Lipid metabolism: No. (regulated genes/genes of function) / MAPK signaling: % of genes regulated / MAPK signaling: D, number of down-regulated genes / MAPK signaling: I, number of up-regulated genes / MAPK signaling: No. (regulated genes/genes of pathway) / PPAR signaling pathway: % of genes regulated / PPAR signaling pathway: D, number of down-regulated genes / PPAR signaling pathway: I, number of up-regulated genes / PPAR signaling pathway: No. (regulated genes/genes of pathway) / TGF-β signaling pathway: % of genes regulated / TGF-β signaling pathway: D, number of down-regulated genes / TGF-β signaling pathway: I, number of up-regulated genes / TGF-β signaling pathway: No. (regulated genes/genes of pathway) / VEGF signaling pathway: % of genes regulated / VEGF signaling pathway: D, number of down-regulated genes / VEGF signaling pathway: I, number of up-regulated genes / VEGF signaling pathway: No. (regulated genes/genes of pathway) / Wnt signaling pathway: % of genes regulated / Wnt signaling pathway: D, number of down-regulated genes / Wnt signaling pathway: I, number of up-regulated genes / Wnt signaling pathway: No. (regulated genes/genes of pathway) / focal adhesion: % of genes regulated / focal adhesion: D, number of down-regulated genes / focal adhesion: I, number of up-regulated genes / focal adhesion: No. (regulated genes/genes of function) / tight junction: % of genes regulated / tight junction: D, number of down-regulated genes / tight junction: I, number of up-regulated genes / tight junction: No. (regulated genes/genes of function): ES cells, 24 hours
Method: The DNA microarray analysis was used to determine whether the gene expression profiles in various pathways in cells will be affected when the cells were cultured by a BP-containing medium.
An experimental group medium (BP10 or BP 40), a LIF-containing medium (without BP), and a control group medium (without BP) were used respectively in a 6-well culture dish to culture ES cells with an initial density of 1×10^4 per well for 24 hours. Next, performing total RNA extraction and the obtained RNA was labeled with Cy3. Samples were hybridized to Agilent Mouse G3 Whole Genome Oligo 86×60K microarrays (Agilent) according to the manufacturer's instructions. Arrays were scanned with a Microarray Scanner System and data was analyzed by using a GeneSpring GX software (Agilent).
According to the related research at present, the Jak-Stat signaling pathway is the most relevant in terms of stem cell self-renewal and pluripotency maintenance.

[1] = BP10 medium (about 10 μg BP/ml)
[2] = BP40 medium (about 40 μg BP/ml)

CCCC=C1OC(=O)c2ccccc21 [BP, n-butylidenephthalide]
Amino acid metabolism: % of genes regulated [1]: 4.3%
Amino acid metabolism: D, number of down-regulated genes [1]: 1
Amino acid metabolism: I, number of up-regulated genes [1]: 0
Amino acid metabolism: No. (regulated genes/genes of function) [1]: 1/23
Apoptosis: % of genes regulated [1]: 11.7%
Apoptosis: D, number of down-regulated genes [1]: 8
Apoptosis: I, number of up-regulated genes [1]: 3
Apoptosis: No. (regulated genes/genes of function) [1]: 11/94
Calcium signaling pathway: % of genes regulated [1]: 21.9%
Calcium signaling pathway: D, number of down-regulated genes [1]: 28
Calcium signaling pathway: I, number of up-regulated genes [1]: 4
Calcium signaling pathway: No. (regulated genes/genes of pathway) [1]: 32/146
Cell adhesion molecules: % of genes regulated [1]: 22%
Cell adhesion molecules: D, number of down-regulated genes [1]: 20
Cell adhesion molecules: I, number of up-regulated genes [1]: 13
Cell adhesion molecules: No. (regulated genes/genes of function) [1]: 33/150
Cell communication: % of genes regulated [1]: 21.7%
Cell communication: D, number of down-regulated genes [1]: 17
Cell communication: I, number of up-regulated genes [1]: 3
Cell communication: No. (regulated genes/genes of function) [1]: 20/92
Cell cycle: % of genes regulated [1]: 2.5%
Cell cycle: D, number of down-regulated genes [1]: 4
Cell cycle: I, number of up-regulated genes [1]: 0
Cell cycle: No. (regulated genes/genes of function) [1]: 4/163
ECM-receptor interaction: % of genes regulated [1]: 28.4%
ECM-receptor interaction: D, number of down-regulated genes [1]: 18
ECM-receptor interaction: I, number of up-regulated genes [1]: 3
ECM-receptor interaction: No. (regulated genes/genes of pathway) [1]: 21/74
Insulin signaling pathway: % of genes regulated [1]: 9.8%
Insulin signaling pathway: D, number of down-regulated genes [1]: 7
Insulin signaling pathway: I, number of up-regulated genes [1]: 3
Insulin signaling pathway: No. (regulated genes/genes of pathway) [1]: 10/102
JAK-STAT signaling pathway: % of genes regulated [1]: 27.9%
JAK-STAT signaling pathway: D, number of down-regulated genes [1]: 30
JAK-STAT signaling pathway: I, number of up-regulated genes [1]: 9
JAK-STAT signaling pathway: No. (regulated genes/genes of pathway) [1]: 39/140
Lipid metabolism: % of genes regulated [1]: 16.5%
Lipid metabolism: D, number of down-regulated genes [1]: 15
Lipid metabolism: I, number of up-regulated genes [1]: 3
Lipid metabolism: No. (regulated genes/genes of function) [1]: 18/109
MAPK signaling: % of genes regulated [1]: 10.6%
MAPK signaling: D, number of down-regulated genes [1]: 17
MAPK signaling: I, number of up-regulated genes [1]: 7
MAPK signaling: No. (regulated genes/genes of pathway) [1]: 24/227
PPAR signaling pathway: % of genes regulated [1]: 37.8%
PPAR signaling pathway: D, number of down-regulated genes [1]: 14
PPAR signaling pathway: I, number of up-regulated genes [1]: 14
PPAR signaling pathway: No. (regulated genes/genes of pathway) [1]: 28/74
TGF-β signaling pathway: % of genes regulated [1]: 11.1%
TGF-β signaling pathway: D, number of down-regulated genes [1]: 2
TGF-β signaling pathway: I, number of up-regulated genes [1]: 3
TGF-β signaling pathway: No. (regulated genes/genes of pathway) [1]: 5/45
VEGF signaling pathway: % of genes regulated [1]: 6.5%
VEGF signaling pathway: D, number of down-regulated genes [1]: 0
VEGF signaling pathway: I, number of up-regulated genes [1]: 2
VEGF signaling pathway: No. (regulated genes/genes of pathway) [1]: 2/31
Wnt signaling pathway: % of genes regulated [1]: 10.6%
Wnt signaling pathway: D, number of down-regulated genes [1]: 5
Wnt signaling pathway: I, number of up-regulated genes [1]: 2
Wnt signaling pathway: No. (regulated genes/genes of pathway) [1]: 7/66
focal adhesion: % of genes regulated [1]: 11%
focal adhesion: D, number of down-regulated genes [1]: 16
focal adhesion: I, number of up-regulated genes [1]: 3
focal adhesion: No. (regulated genes/genes of function) [1]: 19/173
tight junction: % of genes regulated [1]: 13.6%
tight junction: D, number of down-regulated genes [1]: 7
tight junction: I, number of up-regulated genes [1]: 2
tight junction: No. (regulated genes/genes of function) [1]: 9/66
Amino acid metabolism: % of genes regulated [2]: 8.7%
Amino acid metabolism: D, number of down-regulated genes [2]: 2
Amino acid metabolism: I, number of up-regulated genes [2]: 0
Amino acid metabolism: No. (regulated genes/genes of function) [2]: 2/23
Apoptosis: % of genes regulated [2]: 7.4%
Apoptosis: D, number of down-regulated genes [2]: 6
Apoptosis: I, number of up-regulated genes [2]: 1
Apoptosis: No. (regulated genes/genes of function) [2]: 7/94
Calcium signaling pathway: % of genes regulated [2]: 21.9%
Calcium signaling pathway: D, number of down-regulated genes [2]: 30
Calcium signaling pathway: I, number of up-regulated genes [2]: 2
Calcium signaling pathway: No. (regulated genes/genes of pathway) [2]: 32/146
Cell adhesion molecules: % of genes regulated [2]: 22.7%
Cell adhesion molecules: D, number of down-regulated genes [2]: 21
Cell adhesion molecules: I, number of up-regulated genes [2]: 13
Cell adhesion molecules: No. (regulated genes/genes of function) [2]: 34/150
Cell communication: % of genes regulated [2]: 21.7%
Cell communication: D, number of down-regulated genes [2]: 18
Cell communication: I, number of up-regulated genes [2]: 2
Cell communication: No. (regulated genes/genes of function) [2]: 20/92
Cell cycle: % of genes regulated [2]: 3.7%
Cell cycle: D, number of down-regulated genes [2]: 6
Cell cycle: I, number of up-regulated genes [2]: 0
Cell cycle: No. (regulated genes/genes of function) [2]: 6/163
ECM-receptor interaction: % of genes regulated [2]: 25.7%
ECM-receptor interaction: D, number of down-regulated genes [2]: 16
ECM-receptor interaction: I, number of up-regulated genes [2]: 3
ECM-receptor interaction: No. (regulated genes/genes of pathway) [2]: 19/74
Insulin signaling pathway: % of genes regulated [2]: 4.9%
Insulin signaling pathway: D, number of down-regulated genes [2]: 3
Insulin signaling pathway: I, number of up-regulated genes [2]: 2
Insulin signaling pathway: No. (regulated genes/genes of pathway) [2]: 5/102
JAK-STAT signaling pathway: % of genes regulated [2]: 25%
JAK-STAT signaling pathway: D, number of down-regulated genes [2]: 27
JAK-STAT signaling pathway: I, number of up-regulated genes [2]: 8
JAK-STAT signaling pathway: No. (regulated genes/genes of pathway) [2]: 35/140
Lipid metabolism: % of genes regulated [2]: 12.8%
Lipid metabolism: D, number of down-regulated genes [2]: 12
Lipid metabolism: I, number of up-regulated genes [2]: 2
Lipid metabolism: No. (regulated genes/genes of function) [2]: 10/109
MAPK signaling: % of genes regulated [2]: 10.6%
MAPK signaling: D, number of down-regulated genes [2]: 19
MAPK signaling: I, number of up-regulated genes [2]: 5
MAPK signaling: No. (regulated genes/genes of pathway) [2]: 24/227
PPAR signaling pathway: % of genes regulated [2]: 36.5%
PPAR signaling pathway: D, number of down-regulated genes [2]: 14
PPAR signaling pathway: I, number of up-regulated genes [2]: 12
PPAR signaling pathway: No. (regulated genes/genes of pathway) [2]: 27/74
TGF-β signaling pathway: % of genes regulated [2]: 13.3%
TGF-β signaling pathway: D, number of down-regulated genes [2]: 1
TGF-β signaling pathway: I, number of up-regulated genes [2]: 5
TGF-β signaling pathway: No. (regulated genes/genes of pathway) [2]: 6/45
VEGF signaling pathway: % of genes regulated [2]: 0%
VEGF signaling pathway: D, number of down-regulated genes [2]: 0
VEGF signaling pathway: I, number of up-regulated genes [2]: 0
VEGF signaling pathway: No. (regulated genes/genes of pathway) [2]: 0/31
Wnt signaling pathway: % of genes regulated [2]: 9.1%
Wnt signaling pathway: D, number of down-regulated genes [2]: 6
Wnt signaling pathway: I, number of up-regulated genes [2]: 0
Wnt signaling pathway: No. (regulated genes/genes of pathway) [2]: 6/66
focal adhesion: % of genes regulated [2]: 12.7%
focal adhesion: D, number of down-regulated genes [2]: 20
focal adhesion: I, number of up-regulated genes [2]: 2
focal adhesion: No. (regulated genes/genes of function) [2]: 22/173
tight junction: % of genes regulated [2]: 16.7%
tight junction: D, number of down-regulated genes [2]: 9
tight junction: I, number of up-regulated genes [2]: 2
tight junction: No. (regulated genes/genes of function) [2]: 11/66
pathways of the genes significantly regulated (ES cells cultured with the BP-containing medium, result in words): majorly involved in the PPAR, ECM-receptor interaction, and/or Jak-Stat signaling pathways
